Test results as given in patent US5314910A, “Ester inhibitors” (Cortech Inc., priority 1993, dated 1994).

The compounds below were run on ischemia reperfusion injuries (myocardial infarct size) (assay: Ischemia reperfusion injury in dogs, myocardial infarct size). Conditions: not given.
Type: in vivo, dog
Method: Experiments have been conducted on dogs to study the effect of the compounds of the invention in the treatment of ischemia reperfusion injuries.
The protocol used in the experiment referred to in the preceding paragraph involved the following:
Male mongrel dogs (13 to 17 kg) were anesthetized with sodium pentobarbital, 30 mg/kg i.v., intubated and ventilated with room air via a Harvard respirator. Lead II of the electrocardiogram and hemodynamics were monitored continuously throughout the course of the experiment. A catheter was inserted into the left carotid artery and advanced into the left ventricle for the continuous recording of left ventricular pressure. […] After 24 hr of reperfusion, the animal was reanesthetized, the thoracotomy incision opened, the heart fibrillated electrically and removed rapidly for postmortem quantification of infarct size.
Animals were randomized to receive either the test compound or a placebo (diluent) administered as an intracoronary infusion via a catheter inserted into the left circumflex coronary artery just distal to the point at which the vessel is occluded. The dose was determined on the basis of known pharmacokinetic data and the infusion was maintained throughout the 90 period of regional ischemia as well as during the 24 hour reperfusion period. […]

SMILES | reduction in infarct size compared to the controls (in words)
CCC(C(=O)Oc1ccc([S+](C)[O-])cc1)c1cccn1C (centres unmarked) [Compound 16, 4-Methylsulfinylphenyl 2-(1-Methyl-2-pyrrole)butyrate] | significant reduction in infarct size

These compounds were tested against T1, human neutrophil elastase (HNE) (Homo sapiens, UniProt P08246) (assay: Potency (I50 Determination), HNE inhibition). Conditions: substrate N-methoxysuccinyl-ala-ala-pro-val-pNA, pH 7.7, 7 minutes incubation at room temperature, 405 nm.
T1 sequence (P08246 30-267): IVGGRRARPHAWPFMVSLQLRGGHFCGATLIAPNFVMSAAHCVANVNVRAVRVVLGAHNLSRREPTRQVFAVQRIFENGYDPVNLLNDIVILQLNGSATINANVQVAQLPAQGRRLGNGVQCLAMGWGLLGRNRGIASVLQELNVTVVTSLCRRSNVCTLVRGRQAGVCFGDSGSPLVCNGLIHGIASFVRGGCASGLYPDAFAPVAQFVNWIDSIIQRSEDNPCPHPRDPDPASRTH
Type: biochemical
Method: Potency (I50 Determination)
A) 0.075 M sodium phosphate, 20% dimethyl sulfoxide (DMSO), pH 7.7=substrate and inhibitor buffer
B) 0.075 M sodium phosphate, no DMSO, pH 7.7=inhibitor buffer
C) 10 mM human neutrophil elastase (HNE) substrate=N-methoxysuccinyl-ala-ala-pro-val-pNA in DMSO
D) 0.01 M sodium acetate, 20% DMSO, pH 5.5=enzyme buffer (dilution)
E) 0.01 M sodium acetate, pH 5.5 enzyme buffer (storage)
F) HNE (1 mg) dissolved in 1 ML of reagent E for storage at -20° C.
Make a 10 mM stock of the inhibitor in DMSO. Dilute an aliquot (10 μL) up to 1.0 mL in reagent A (100 μM). Serially dilute 100 μL of the 100 μM stock to […], 1.0, 0.1, 0.01 μM in reagent A. Apply 100 μL of the diluted material to the wells of a 96-well plate. Dilute an aliquot of reagent F 1:150 in reagent D, apply 50 μL aliquots to the indicated wells and incubate for 7 minutes at room temperature.
The HNE substrate solution is made by taking 100 μL of reagent C into 500 μL of reagent A and 400 μL of reagent B. After the 7 minutes of incubation, the substrate (50 μL) is applied to each well. The HNE catalyzed reaction is then monitored spectrophotometrically at 405 nm using an ELISA plate reader machine (UVMAX, Molecular Devices) which processes the raw data with an on-board kinetics program. The enzyme activity is plotted against different inhibitor concentrations and the […] is determined by using a curve fitting software program. Once the "screening" I50 has been approximated, a more precise I50 value can be obtained by examination of inhibitor concentrations around this value.

SMILES | IC50
CCC(C(=O)Oc1ccc([N+](=O)[O-])cc1)c1ccsc1 (centres unmarked) [Compound 14] | 120 nM
CCC(C(=O)Oc1ccc(SC)cc1)c1ccsc1 (centres unmarked) [Compound 11, 4-Methylmercaptophenyl 2-(3-thiophene)butyrate] | 1500 nM
CCC(C(=O)Oc1ccc([S+](C)[O-])cc1)c1coc2ccccc12 (centres unmarked) [Compound 5] | 420 nM
CCC(C(=O)Oc1ccc([S+](C)[O-])cc1)c1cccn1C (centres unmarked) [Compound 16, 4-Methylsulfinylphenyl 2-(1-Methyl-2-pyrrole)butyrate] | 460 nM
CCC(C(=O)Oc1ccc([S+](C)[O-])cc1)c1cccs1 (centres unmarked) [Compound 8] | 430 nM
CCC(C(=O)Oc1ccc(S(C)(=O)=O)cc1)c1cccn1C (centres unmarked) [Compound 17, 4-Methylsulfonylphenyl 2-(1-Methyl-2-pyrrole)butyrate] | 60 nM
CCC(C(=O)Oc1ccc([N+](=O)[O-])cc1)c1cccs1 (centres unmarked) [Compound 10] | 270 nM
CCC(C(=O)Oc1ccc([S+](C)[O-])cc1)c1c[nH]c2ccccc12 (centres unmarked) [Compound 22] | 1900 nM
CCC(C(=O)Oc1ccc([S+]([O-])CC(C)(C)C(=O)O)cc1)c1cccn1C (centres unmarked) [Compound 20, 4-(2,-Carboxy-2'-methylpropylsulfinyl)phenyl 2-(1-Methyl-2-pyrrole)butyrate] | 590 nM
CCC(C(=O)Oc1ccc(SC)cc1)c1ccoc1 (centres unmarked) [Compound 1] | 6060 nM
CCC(C(=O)Oc1ccc([S+](C)[O-])cc1)c1ccsc1 (centres unmarked) [Compound 12, 4-Methylsulfinylphenyl 2-(3-thiophene)butyrate] | 130 nM
CCC(C(=O)Oc1ccc(S(C)(=O)=O)cc1)c1cccs1 (centres unmarked) [Compound 9] | 290 nM
CCC(C(=O)Oc1ccc([N+](=O)[O-])cc1)c1cccn1C (centres unmarked) [Compound 18] | 200 nM
CCC(C(=O)Oc1ccc(SC)cc1)c1cccs1 (centres unmarked) [Compound 7] | 3000 nM
CCC(C(=O)Oc1ccc(SC)cc1)c1c[nH]c2ccccc12 (centres unmarked) [Compound 21] | 33000 nM
CCC(C(=O)Oc1ccc(S(C)(=O)=O)cc1)c1ccsc1 (centres unmarked) [Compound 13, 4-Methylsulfonylphenyl 1-(3-thiophene)butyrate] | 50 nM
CCC(C(=O)Oc1ccc([S+](C)[O-])cc1)c1ccoc1 (centres unmarked) [Compound 2] | 1440 nM
CCC(C(=O)Oc1ccc(SC)cc1)c1coc2ccccc12 (centres unmarked) [Compound 4] | 3800 nM
CCC(C(=O)Oc1ccc(S(C)(=O)=O)cc1)c1ccoc1 (centres unmarked) [Compound 3] | 470 nM
CCC(C(=O)Oc1ccc(SC)cc1)c1cccn1C (centres unmarked) [Compound 15, 4-Methylmercaptophenyl 2-(1-Methyl-2-pyrrole)butyrate] | 6200 nM
CCC(C(=O)Oc1ccc(SCC(C)(C)C(=O)O)cc1)c1cccn1C (centres unmarked) [Compound 19, 4-(2'-Carboxy-2'-methylpropylmercapto)phenyl 2-(1-Methyl-2-pyrrole)butyrate] | 200 nM
CCC(C(=O)Oc1ccc(S(C)(=O)=O)cc1)c1coc2ccccc12 (centres unmarked) [Compound 6] | 150 nM
